# Molecular target: PI3Kδ kinase (Homo sapiens, UniProt O00329)
# Assay: In vitro pharmacodynamics evaluation to PI3K kinases
# Chain of PI3Kδ kinase (O00329 whole entry): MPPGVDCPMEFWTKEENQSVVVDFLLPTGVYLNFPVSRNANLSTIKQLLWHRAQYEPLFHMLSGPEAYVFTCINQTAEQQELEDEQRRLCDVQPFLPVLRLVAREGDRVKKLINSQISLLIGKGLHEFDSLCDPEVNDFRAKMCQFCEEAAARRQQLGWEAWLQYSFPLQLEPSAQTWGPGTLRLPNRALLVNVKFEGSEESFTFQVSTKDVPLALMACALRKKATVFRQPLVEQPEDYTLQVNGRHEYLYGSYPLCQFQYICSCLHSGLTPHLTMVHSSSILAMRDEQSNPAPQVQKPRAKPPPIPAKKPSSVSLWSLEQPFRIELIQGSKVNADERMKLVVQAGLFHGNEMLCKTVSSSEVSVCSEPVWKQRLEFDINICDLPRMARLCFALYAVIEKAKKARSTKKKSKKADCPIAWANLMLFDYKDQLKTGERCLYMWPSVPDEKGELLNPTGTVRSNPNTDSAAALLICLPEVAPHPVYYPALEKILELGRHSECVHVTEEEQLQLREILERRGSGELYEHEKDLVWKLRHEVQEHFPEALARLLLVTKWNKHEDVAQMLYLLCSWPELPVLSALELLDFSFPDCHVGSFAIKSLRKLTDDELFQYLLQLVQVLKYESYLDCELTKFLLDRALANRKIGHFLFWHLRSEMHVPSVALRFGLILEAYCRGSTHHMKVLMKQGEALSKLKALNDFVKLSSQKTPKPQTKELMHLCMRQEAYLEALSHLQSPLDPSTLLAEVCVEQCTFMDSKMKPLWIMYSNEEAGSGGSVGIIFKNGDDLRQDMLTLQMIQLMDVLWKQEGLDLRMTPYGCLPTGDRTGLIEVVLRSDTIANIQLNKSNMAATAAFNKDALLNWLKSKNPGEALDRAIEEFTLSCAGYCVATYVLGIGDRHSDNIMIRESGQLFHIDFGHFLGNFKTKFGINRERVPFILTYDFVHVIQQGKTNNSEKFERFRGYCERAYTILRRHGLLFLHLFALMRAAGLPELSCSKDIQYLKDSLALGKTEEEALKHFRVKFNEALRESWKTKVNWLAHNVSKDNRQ
# Chain of PI3Kδ kinase (P27986 whole entry partner): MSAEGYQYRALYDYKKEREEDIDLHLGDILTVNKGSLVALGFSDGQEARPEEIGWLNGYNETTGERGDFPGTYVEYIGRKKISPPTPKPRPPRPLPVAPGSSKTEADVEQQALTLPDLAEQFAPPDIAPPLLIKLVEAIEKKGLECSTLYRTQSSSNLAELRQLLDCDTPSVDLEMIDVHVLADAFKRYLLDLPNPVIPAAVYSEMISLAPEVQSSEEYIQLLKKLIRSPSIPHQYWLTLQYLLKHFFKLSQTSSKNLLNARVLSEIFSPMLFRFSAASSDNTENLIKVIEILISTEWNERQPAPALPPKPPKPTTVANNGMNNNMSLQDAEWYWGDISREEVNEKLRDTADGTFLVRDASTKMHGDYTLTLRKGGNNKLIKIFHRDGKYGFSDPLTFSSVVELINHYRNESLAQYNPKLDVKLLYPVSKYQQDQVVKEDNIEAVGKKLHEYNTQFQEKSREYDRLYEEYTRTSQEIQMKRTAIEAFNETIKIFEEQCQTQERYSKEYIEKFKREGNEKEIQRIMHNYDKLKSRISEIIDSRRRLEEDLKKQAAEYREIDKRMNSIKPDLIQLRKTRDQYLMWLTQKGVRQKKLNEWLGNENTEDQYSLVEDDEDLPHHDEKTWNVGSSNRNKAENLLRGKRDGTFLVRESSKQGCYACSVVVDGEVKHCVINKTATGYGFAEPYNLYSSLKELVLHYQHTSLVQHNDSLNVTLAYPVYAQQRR
row,IC50,Structure (SMILES)
1,< 20 nM,"[2H][C@@](C)(Nc1ncnc2[nH]cnc12)c1nc2ccc(F)cc2c(=O)n1-c1ccccc1 [Example 8, (S)-2-(1-(9H-purin-6-yl-amino)-1-d-ethyl)-6-fluoro-3-phenyl quinazoline-4(3H)-ketone]"
2,< 20 nM,"[2H]C([2H])([2H])[C@]([2H])(Nc1ncnc2[nH]cnc12)c1nc2ccc(F)cc2c(=O)n1-c1ccccc1 [Example 9, (S)-2-(1-(9H-purin-6-yl-amino)-1,2,2,2-d4-ethyl)-6-fluoro-3-phenyl quinazoline-4(3H)-ketone]"
3,< 20 nM,"[2H]C([2H])([2H])[C@H](Nc1ncnc2[nH]cnc12)c1nc2ccc(F)cc2c(=O)n1-c1ccccc1 [Example 10, (S)-2-(1-(9H-purin-6-yl-amino)-2,2,2-d3-ethyl)-6-fluoro-3-phenyl quinazoline-4(3H)-ketone]"
